# Literature values in patent US11066360B2, “Human plasma kallikrein inhibitors” (priority 2015, dated 2021).
# Where a SMILES comes first, the peptide text is derived from it.
# Columns and labels:
# [1] = test system: LPS- or bacterial-induced sepsis in animals
# [2] = test system: patients with hereditary angioedema (HAE); conditions: human, in vivo
# [3] = test system: mouse model of middle cerebral artery occlusion (MCAO)
Molecule,lesions [1],vascular permeability in multiple organs [1],further results
"NC(N)=NCCC[C@H](NC(=O)[C@H](Cc1ccccc1)NC(=O)[C@H]1CCCN1)C(=O)CCl [CMK, H-D-Pro-Phe-Arg-chloromethylketone] (HELM PEPTIDE1{[dP].F.R.[ClC[*:1]]}$$$$V2.0)",reduce,reduce,
NC(N)=NCCC[C@@H](N)C(=O)N[C@@H](CCCN=C(N)N)C(=O)N1CCC[C@H]1C(=O)N1C[C@H](O)C[C@H]1C(=O)NCC(=O)N[C@@H](Cc1cccs1)C(=O)N[C@@H](CO)C(=O)N1Cc2ccccc2C[C@@H]1C(=O)N1[C@H](C(=O)N[C@@H](CCCN=C(N)N)C(=O)O)C[C@@H]2CCCC[C@@H]21 [Icatibant],,,treating HAE [2]: effective
Cl.NCC1CCC(C(=O)N[C@@H](Cc2ccccc2)C(=O)Nc2ccc(CC(=O)O)cc2)CC1 (some centres unmarked) [PKSI-527],,,joint swelling (rat models of arthritis): reduce
C1-inhibitor: a physiological inhibitor (C1-inhibitor) [Compound C1-inhibitor],reduce,reduce,infarct size [3]: reduced; clinical improvement in sepsis patients (sepsis patients): Clinical improvement
